Patent publication US11518750B2, “3-methylideneoxan-4-one compounds and substituted derivatives thereof as inhibitors of telomerase” (NORTHWESTERN UNIVERSITY, priority 2019, dated 2022)
Like-named read-outs stand apart in the source and are kept apart here.

Legend:
[1] = target: T1, telomerase (MCF-7 cell lysates) (Homo sapiens, UniProt O14746); experiment: TRAP assay in cell lysates (PCR-based telomerase activity assay); assay type: biochemical; details: TRAP assay
T1 construct: endogenous in cells; host or cells: MCF-7
Text: In developing a preliminary structural activity relationship (SAR) for the chrologs, we divided the structure of the pyran into four main components: (1)C-2 substituents (carboxylic acid of chrolactomycin); (2) C-6 substituents (chrolactomycin macrolide loop); (3) C-3 substituents (fused γ-lactone of chrolactomycin) and (4) inclusion of the exocyclic methylene group. We carried out systematic modifications of each structural unit and evaluated the effects on telomerase activity as measured by a PCR-based telomerase activity assay (TRAP assay).^16
Telomeric Repeat Amplification Protocol Assay. The telomeric repeat amplification protocol (TRAP) assay was performed using the TRAPeze RT Telomerase Detection Kit (EMD Millipore) and iTaq DNA polymerase (Bio-Rad) according to the manufacturer's protocol.
Cell Lysate TRAP Analysis. MCF-7, HeLa, ACHN, MDA-MB231 and A549 cells were cultured in DMEM media supplemented with 10% Fetal Bovine Serum (FBS), 1% pen/strep and with 5% CO2 and 37° C. Cells were plated in 2×T75 flasks and cultured for 3 days. Flasks were rinsed twice with PBS and treated with 0.05% trypsin-EDTA (Thermo Fisher) to detach cells. […] Cell extracts were transferred to microcentrifuge tubes, 200 μl/tube, and centrifuged at 12,000×g for 20 min at 4° C. to remove cell debris. Stock solutions of compounds were made in DMSO with a concentration of 100 mM and a […] dilution was performed in DMSO in a 96-well plate to produce compound solutions of 100, 10, 1, 0.1, 0.01, and 0.001 mM (1000× of the final concentration). The 1000× stock solutions of the compound samples were transferred to a 96-well plate using the Echo 550 (Labcyte) and then diluted with the cell extracts to yield final compound concentrations of 100, 10, 1, 0.1, 0.01, and 0.001 μM. The plate was covered and shaken at room temperature for 30 min. For TRAPeze reactions, a “master mix” was prepared according to the TRAPeze protocol, containing 5 μl of the TRAPeze reaction mix; 0.4 μl Taq polymerase; 17.6 μl PCR grade, nuclease-free water. The master mix and treated cell extracts were transferred using the Mosquito Crystal Liquid Handling System (TTP Labtech) into separate wells in a white, 384-well RT-PCR plate. Each well contained 1.2 μl of the master mix and 1.2 μl of the treated cell extract to give a final volume of 2.4 μl, with two duplicates for each sample. The RT-PCR plate was then sealed and centrifuged for 5 min. A sample containing only CHAPS Lysis Buffer was included as negative control. The TSR8 standards were included to generate a standard curve. Samples were amplified in a CFW384 RT-PCR (BioRad) detection system with PCR parameters of 30 min at 30° C. for 1 cycle, 2 min at 95° C. for 1 cycle, and then 45 cycles of 15 s at 94° C., 60 s at 59° C., and 10 s at 45° C. Real-time fluorescent data was obtained during the 10 s at 45° C. step. The number of cycles at which the fluorescence level reached a threshold (Ct) was averaged between the duplicates for each sample. Using a calibration curve obtained from the TSR8 standards, a linear equation was obtained to convert the Ct values into arbitrary telomerase activity units, which were plotted as a function of compound concentration to construct dose-response curves and calculate IC50.

tcTERT = experiment: Protease digestion and mass spectrometry of treated tcTERT; assay type: binding, Tribolium castaneum; details: proteolysis and tandem mass spectrometry
Procedure: Protease Digestion and Mass Spectrometry Analysis. tcTERT (50 μg, ˜600 pmol) was treated with chrolactomycin, NU-1, helenalin, costunolide or DMSO for 1 hr at 37° C. The reaction was diluted with ammonium bicarbonate buffer (pH 8.0), then reduced for 30 min at 56° C. with 10 mM DTT. After cooling to 23° C., the protein was alkylated with 25 mM iodoacetamide for 30 min at 23° C. in the dark, followed by trypsin digestion (2.5 μg, Promega) overnight at 37° C. Digested peptides (˜2 pmol) were injected onto a self-packed precolumn (4 cm POROS10R2) and eluted into the mass spectrometer (LTQ Orbitrap Velos, Thermo Fisher). Peptides were subjected to MS^2 by CAD (electron multiplier detection, relative collision energy 35%, q=0.25).

[2] = MCF-7 cell lysates, read-out: IC50
[3] = Table 1, C-2 and C-6 groups, read-out: IC50
[4] = Table 2, C-3 group, read-out: IC50

T1 sequence (O14746 whole entry): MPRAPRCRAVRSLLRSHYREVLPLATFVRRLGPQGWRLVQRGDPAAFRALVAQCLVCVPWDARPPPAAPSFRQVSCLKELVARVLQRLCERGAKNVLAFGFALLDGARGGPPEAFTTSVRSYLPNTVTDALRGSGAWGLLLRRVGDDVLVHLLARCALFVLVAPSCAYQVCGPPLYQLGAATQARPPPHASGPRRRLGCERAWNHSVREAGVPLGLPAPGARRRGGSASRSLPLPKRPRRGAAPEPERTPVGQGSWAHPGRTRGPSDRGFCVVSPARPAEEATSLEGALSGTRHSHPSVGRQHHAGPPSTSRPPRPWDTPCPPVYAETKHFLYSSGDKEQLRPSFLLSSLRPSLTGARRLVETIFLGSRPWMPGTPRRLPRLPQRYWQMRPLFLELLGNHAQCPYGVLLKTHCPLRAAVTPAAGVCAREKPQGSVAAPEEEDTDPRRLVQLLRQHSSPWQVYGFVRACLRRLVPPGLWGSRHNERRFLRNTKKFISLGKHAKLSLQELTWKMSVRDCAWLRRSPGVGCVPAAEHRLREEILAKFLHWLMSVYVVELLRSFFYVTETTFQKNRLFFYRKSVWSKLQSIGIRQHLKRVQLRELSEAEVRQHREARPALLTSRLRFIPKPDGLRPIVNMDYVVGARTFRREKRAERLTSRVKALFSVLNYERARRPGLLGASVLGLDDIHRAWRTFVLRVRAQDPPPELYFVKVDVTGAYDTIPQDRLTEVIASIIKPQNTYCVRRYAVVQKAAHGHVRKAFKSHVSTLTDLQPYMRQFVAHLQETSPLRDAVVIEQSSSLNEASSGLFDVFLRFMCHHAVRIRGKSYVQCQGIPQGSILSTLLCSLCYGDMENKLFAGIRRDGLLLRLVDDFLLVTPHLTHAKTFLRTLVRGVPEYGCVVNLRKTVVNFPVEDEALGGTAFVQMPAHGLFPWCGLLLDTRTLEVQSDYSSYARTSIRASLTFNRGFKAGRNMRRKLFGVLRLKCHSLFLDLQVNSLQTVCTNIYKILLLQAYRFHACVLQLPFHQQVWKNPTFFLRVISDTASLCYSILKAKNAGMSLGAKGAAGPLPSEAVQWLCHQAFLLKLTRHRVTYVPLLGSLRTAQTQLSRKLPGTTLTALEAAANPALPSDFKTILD
T1 sequence (O60832 whole entry partner): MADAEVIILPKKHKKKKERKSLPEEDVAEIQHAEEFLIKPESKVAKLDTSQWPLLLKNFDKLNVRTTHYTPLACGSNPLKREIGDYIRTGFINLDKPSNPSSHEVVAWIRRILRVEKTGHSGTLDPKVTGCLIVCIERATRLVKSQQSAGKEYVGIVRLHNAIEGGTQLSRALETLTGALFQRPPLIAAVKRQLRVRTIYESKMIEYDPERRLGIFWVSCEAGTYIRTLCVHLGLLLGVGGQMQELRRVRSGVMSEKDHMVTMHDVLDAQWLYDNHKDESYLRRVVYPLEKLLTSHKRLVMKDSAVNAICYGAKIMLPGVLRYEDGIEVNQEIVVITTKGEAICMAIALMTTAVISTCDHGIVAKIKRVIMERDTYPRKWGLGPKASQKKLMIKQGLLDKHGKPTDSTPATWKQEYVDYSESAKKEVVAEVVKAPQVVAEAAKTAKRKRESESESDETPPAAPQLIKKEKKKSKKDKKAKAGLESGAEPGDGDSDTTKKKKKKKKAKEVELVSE
T1 sequence (Q9NPE3 whole entry partner): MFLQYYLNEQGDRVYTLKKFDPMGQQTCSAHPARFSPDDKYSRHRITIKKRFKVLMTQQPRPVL
T1 sequence (Q9NX24 whole entry partner): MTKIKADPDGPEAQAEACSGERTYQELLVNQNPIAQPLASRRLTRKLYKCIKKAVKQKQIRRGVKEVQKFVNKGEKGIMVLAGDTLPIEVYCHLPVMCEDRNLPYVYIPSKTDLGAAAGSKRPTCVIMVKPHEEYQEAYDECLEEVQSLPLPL
T1 sequence (Q9NY12 whole entry partner): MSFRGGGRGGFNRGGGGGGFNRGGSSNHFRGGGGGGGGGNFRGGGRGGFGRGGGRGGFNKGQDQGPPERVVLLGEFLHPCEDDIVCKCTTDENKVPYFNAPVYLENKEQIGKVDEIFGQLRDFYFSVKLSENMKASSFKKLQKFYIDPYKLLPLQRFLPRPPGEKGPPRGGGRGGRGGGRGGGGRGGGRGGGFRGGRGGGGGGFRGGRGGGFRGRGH
T1 sequence (Q9BUR4 whole entry partner): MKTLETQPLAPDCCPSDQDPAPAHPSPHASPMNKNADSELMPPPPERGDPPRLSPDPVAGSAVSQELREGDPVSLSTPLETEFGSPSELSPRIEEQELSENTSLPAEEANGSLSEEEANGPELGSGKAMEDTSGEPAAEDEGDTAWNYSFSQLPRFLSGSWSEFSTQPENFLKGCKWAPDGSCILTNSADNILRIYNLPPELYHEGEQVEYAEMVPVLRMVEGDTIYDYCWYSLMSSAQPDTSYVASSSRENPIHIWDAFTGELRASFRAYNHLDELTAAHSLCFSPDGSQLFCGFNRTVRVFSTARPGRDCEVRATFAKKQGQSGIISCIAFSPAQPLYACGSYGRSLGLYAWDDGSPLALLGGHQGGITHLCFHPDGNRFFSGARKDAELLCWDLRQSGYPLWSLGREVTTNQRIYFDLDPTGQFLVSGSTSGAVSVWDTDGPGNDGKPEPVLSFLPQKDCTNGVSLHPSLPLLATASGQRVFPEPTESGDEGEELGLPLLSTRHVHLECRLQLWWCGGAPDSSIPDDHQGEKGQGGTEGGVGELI

| Structure (SMILES) | IC50 [1, 3] [µM] | IC50 [1, 4] [µM] | also measured |
| --- | --- | --- | --- |
| C=C1C(=O)[C@](C)(C(=O)OC)[C@H](CCc2ccc(NC(C)=O)cc2)O[C@@H]1C (racemic) [Compound 4a, (±) methyl (2S,3R,6R)-2-(4-acetamidophenethyl)-3,6-dimethyl-5-methylene-4-oxotetrahydro2H-pyran-3-carboxylate] | 1.5 | 1.5 | IC50 [1, 2]: 1.5 µM |
| C=C1C(=O)[C@](C)(C(=O)OC)[C@H](CCc2ccccc2)O[C@@H]1C (racemic) [Compound 4b, (±) methyl (2S,3R,6R)-3,6-dimethyl-5-methylene-4-oxo-2-phenethyltetrahydro-2H-pyran-3 carboxylate] | > 100 |  |  |
| C=C1C(=O)[C@](C)(C(=O)OC)[C@H](CC(C)C)O[C@@H]1C (racemic) [Compound 4c, (±) methyl (2S,3R,6R)-2-isobutyl-3,6-dimethyl-5-methylene-4-oxotetrahydro-2H-pyran-3 carboxylate] | > 100 |  |  |
| C=C1C(=O)[C@](C)(C(=O)OC)[C@H](CCc2ccc(F)cc2)O[C@@H]1C (racemic) [Compound 4d, (±) methyl (2S,3R,6R)-2-(4-fluorophenethyl)-3,6-dimethyl-5-methylene-4-oxotetrahydro-2H pyran-3-carboxylate] | 42 |  |  |
| C=C1C(=O)[C@@](C)(C(=O)OC)[C@@H](CCc2ccc(C(F)(F)F)cc2)O[C@H]1C (racemic) [Compound 4e, (±) methyl (2S,3R,6R)-3,6-dimethyl-5-methylene-4-oxo-2-(4(trifluoromethyl)phenethyl)tetrahydro-2H-pyran-3-carboxylate] | 55 |  |  |
| C=C1C(=O)[C@](C)(C(=O)OC)C(CCc2ccc(OC)cc2)O[C@@H]1C (mixture of isomers) [Compound 4f, (±) methyl (2S,3R,6R)-2-(4-methoxyphenethyl)-3,6-dimethyl-5-methylene-4-oxotetrahydro2H-pyran-3-carboxylate] | 62 |  |  |
| C=C1C(=O)[C@@](C)(C(=O)OC)[C@@H](CCc2cccc(NC(C)=O)c2)O[C@H]1C (racemic) [Compound 4g, (±) methyl (2S,3R,6R)-2-(3-acetamidophenethyl)-3,6-dimethyl-5-methylene-4-oxotetrahydro2H-pyran-3-carboxylate] | 11 |  |  |
| C=C1C(=O)[C@@](C)(C(=O)OC)[C@@H](CCc2cccc(F)c2)O[C@H]1C (racemic) [Compound 4h, (±) methyl (2S,3R,6R)-2-(3-fluorophenethyl)-3,6-dimethyl-5-methylene-4-oxotetrahydro-2H pyran-3-carboxylate] | > 100 |  |  |
| C=C1C(=O)[C@@](C)(C(=O)OC)[C@@H](CCc2ccc(NC(C)=O)cc2)O[C@H]1CC(C)C (racemic) [Compound 4i, (±) methyl (2S,3R,6R)-2-(4-acetamidophenethyl)-6-isobutyl-3-methyl-5-methylene-4oxotetrahydro-2H-pyran-3-carboxylate] | 45 |  |  |
| C=C1C(=O)[C@@](C)(C(=O)OC)[C@@H](CCc2ccc(NC(C)=O)cc2)O[C@H]1CCc1ccccc1 (racemic) [Compound 4j, (±) methyl (2S,3R,6R)-2-(4-acetamidophenethyl)-3-methyl-5-methylene-4-oxo-6phenethyltetrahydro-2H-pyran-3-carboxylate] | > 100 |  |  |
| C=C1C(=O)[C@@](C)(C(=O)OC(C)C)[C@@H](CCc2ccc(NC(C)=O)cc2)O[C@H]1C (racemic) [Compound 4k, (±) isopropyl (2S,3R,6R)-2-(4-acetamidophenethyl)-3,6-dimethyl-5-methylene-4oxotetrahydro-2H-pyran-3-carboxylate] |  | 45 |  |
| C=C1C(=O)[C@@](C)(C(=O)OCC2CC2)[C@@H](CCc2ccc(NC(C)=O)cc2)O[C@H]1C (racemic) [Compound 4l, (±) cyclopropylmethyl (2S,3R,6R)-2-(4-acetamidophenethyl)-3,6-dimethyl-5-methylene-4oxotetrahydro-2H-pyran-3-carboxylate] |  | 75 |  |
| C=C1C(=O)[C@](C)(C(=O)OCc2ccccc2)C(CCc2ccc(NC(C)=O)cc2)O[C@@H]1C (mixture of isomers) [Compound 4m, (±) benzyl (2S,3R,6R)-2-(4-acetamidophenethyl)-3,6-dimethyl-5-methylene-4-oxotetrahydro2H-pyran-3-carboxylate] |  | 35 |  |
| C=C1C(=O)[C@@](C)(C(=O)OCCCC)[C@@H](CCc2ccc(NC(C)=O)cc2)O[C@H]1C (racemic) [Compound 4n, (±) butyl (2S,3R,6R)-2-(4-acetamidophenethyl)-3,6-dimethyl-5-methylene-4-oxotetrahydro2H-pyran-3-carboxylate] |  |  | IC50 ([1]; IC50, Table 2, C-3 group): 85 µM |
| C=C1C(=O)[C@@](CC)(C(=O)OC)[C@@H](CCc2ccc(NC(C)=O)cc2)O[C@H]1C (racemic) [Compound 4q, (±) methyl (2S,3R,6R)-2-(4-acetamidophenethyl)-3-ethyl-6-methyl-5-methylene-4oxotetrahydro-2H-pyran-3-carboxylate] |  | 15 |  |
| C=C1C(=O)[C@@](C(=O)OC)(C(C)C)[C@H](CCc2ccc(NC(C)=O)cc2)O[C@@H]1C (racemic) [Compound 4r, (±) methyl (2S,3R,6R)-2-(4-acetamidophenethyl)-3-isopropyl-6-methyl-5-methylene-4oxotetrahydro-2H-pyran-3-carboxylate] |  | 62 |  |
| C=C1C(=O)C(C)(C(=O)OC)C(CCc2ccc(NC(C)=O)cc2)OC1C (single isomer, unassigned) [enantiopure para N-acetylphenethyl analogue] |  |  | IC50 [1, 2]: 0.9 µM |
| C=C1C(=O)C(C)(C(=O)OC)C(CCc2ccc(NC(C)=O)cc2)OC1C (single isomer, unassigned) [opposite antipode] |  |  | IC50 [1, 2]: 4.5 µM |
| C=C1C(=O)[C@](C)(C(=O)OCCOC)[C@@H](CCc2ccc(NC(C)=O)cc2)O[C@H]1C [Compound 4p] |  | 25 |  |
| C=C1C(=O)O[C@@H]2/C=C(\C)CC/C=C(\C)CC[C@@H]12 [costunolide] |  |  | adduct formation with tcTERT peptides (tcTERT): no adduct formation |
| C=C1C(=O)O[C@@H]2C[C@@H](C)[C@@H]3C=CC(=O)[C@@]3(C)[C@@H](O)[C@H]12 [helenalin] |  |  | adduct formation with tcTERT peptides (tcTERT): no adduct formation |
| C=C1C(=O)[C@]2(C)C(=O)O[C@@]34C[C@H](C)C(C(=O)O)=C[C@@H]3CCC[C@@H](C)C[C@@H](C)[C@H]1O[C@H]24 [okilactomycin, reference compound] |  |  | IC50 [1, 2]: 2.1 µM |
